Reference: patent publication US9598441B2, “Therapeutic compounds and methods” (Wayne State University, priority 2011, dated 2017)
Residues, ends and D or L forms follow the SMILES beside them. *: point of attachment. Cbz = O=C(OCc1ccccc1)*; CH2F = FC*

Key:
[1] = molecular target: T1, Gst-APC-2 (685-754) (Homo sapiens, UniProt Q9UJX6); assay: In vitro binding of SMIs, immobilized Gst-APC-2 pre-incubated with CFM; conditions: WB with anti HA-tag
T1 construct: immobilizing the Gst-APC-2 (685-754) peptide with Gst-beads; made in house; host or cells: E. coli BL-21 (DE3)
Procedure: (§1) The CFM-4 and 5 were separately dissolved in DMSO to obtain a stock of 20-50 mM. For in vitro binding experiments we utilized affinity-purified Gst-APC-2 (685-754) and His-TAT-HA-tagged A-epitope (WT) peptide. Ten nanogram of the His-TAT-HA-tagged A-epitope (WT) peptide was first allowed to bind with Ni-NTA beads (ProBond, InVitrogen), and then the reaction was incubated with DMSO (control), 100 μM CFM-4, or 100 μM CFM-5 for 30 min at RT. The reactions were then subjected to three washes with the binding buffer, followed by incubation with 10 ng of affinity-purified Gst-APC-2 (685-754) peptide for 30 min at RT. The reactions were washed again for three times with PBS, eluted and analyzed on a SDS-PAGE followed by western blotting (WB) with anti-Gst antibodies. A similar strategy was performed by immobilizing the Gst-APC-2 (685-754) peptide with Gst-beads. The beads were washed, incubated with DMSO or the CFMs, and the reactions washed again. The reactions were then allowed to incubate with affinity purified A-epitope peptide, and the complexes analyzed by SDS-PAGE followed by WB with anti HA-tag antibodies.

[2] = molecular target: T2, His-TAT-HA-tagged A-epitope peptide [CARP-1 (951-980)] (Homo sapiens, UniProt Q8IX12); assay: In vitro binding of SMIs, immobilized A-epitope peptide pre-incubated with CFM; conditions: 100 μM, 30 min at RT; WB with anti-Gst
T2 construct: wild-type or scrambled His-TAT-HA-CARP-1 (951-980) peptides; made in house; host or cells: E. coli BL-21 (DE3)
T2 sequence (Q8IX12 951-980 limits assumed): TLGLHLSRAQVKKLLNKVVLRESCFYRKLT
Procedure: as §1

[3] = molecular target: T3, CARP-1 binding with APC-2 (Homo sapiens, UniProt Q8IX12); assay: Fluorescence polarization assay (FPA) for inhibitors of CARP-1-APC-2 binding; conditions: fluorescein-tagged A-epitope peptide and Gst-APC-2 (685-754)
T3 construct: made in house; host or cells: E. coli BL-21 (DE3)
T3 sequence (Q8IX12 951-980 limits assumed): T2 sequence (Q8IX12 951-980 limits assumed)
Procedure: Although, several formats for FP are indicated in the published literature (Inglese, J., Johnson, R. L., Simeonov, A., Xia, M., Zheng, W., Austin, C. P., Auld, D. S. (2007) Nat. Chem. Biol. 3(8), 466-79), the assays using 96-well or higher density plates are often and routinely employed. Optimization of FP for HTS involves several steps including the determination of Kd values, optimization of the buffer conditions, incubation and measurement times, and determination of the DMSO tolerance of the assay. Our goal was to minimize variation and to aim for adequate signal:background without adversely effecting the sensitivity of the assay. The FP polarization values in milli-polarization (mp) were measured to determine changes in the mp (Amp=mp of bound peptide mp of free peptide), the Kd and Ki constants of the binding. A 30-mer CARP-1 peptide that contained APC-2-binding epitope (A-epitope peptide) was commercially synthesized (US Biologicals, MA), labeled with fluorescein at the N-terminus, and purified to >98% purity. Increasing concentrations of A-epitope peptide were incubated with the indicated quantities of the affinity-purified Gst-APC-2 (685-754) protein in assay buffer containing 0.01% triton-X100. Affinity-purified Gst-NEMO (221-317) was included as a negative control. The Δmp was measured by excitation at 485 nm and emission at 538 nm.
The kinetics of CARP-1 binding with APC-2 was determined, and whether this binding could be exploited to identify SMIs of CARP-1-APC-2 interaction was investigated. For this purpose, a FPA utilizing the affinity-purified Gst-APC-2 (685-754) protein and the fluorescein-tagged A-epitope peptide was developed as detailed in methods. […] The signal to background ratio of 6 underscored robustness of this assay. Since, the quality (precision) and suitability of the FPA for HTS is usually defined by the Z′ factor (25, 40), we utilized the positive and negative control mean signals (μc+ and μc−, respectively) and their standard deviations (σc+ and σc−) to calculate the Z′ factor using the equation Z′=1−[3(σc++σc−)/(μc+−μc−)]. […]

[4] = test system: HBC, colon, prostate, pancreatic cancer, MPM and lymphoma cells; assay: MTT cell viability assay, cancer cells; assay type: cell-based, human; conditions: combination with CFM-4
Procedure: (§2) Logarithmically growing cells were either untreated or treated with different agents for various time periods. The cells were lysed to prepare protein extracts. IP was carried out by incubating approximately 1 mg of the protein lysate with appropriate antibodies, and the immunoprecipitates or cell lysates were then electrophoresed on 9-12% SDS-polyacrylamide gels, and transferred to nitrocellulose membranes. The membranes were subsequently probed with various antibodies to determine expression/presence of the corresponding proteins. The cell growth inhibition was assessed by using MTT assay. Briefly, MTT (3-[4,5-Dimethylthiazol-2-yl]-2,5diphenyltetrazolium bromide) was dissolved in sterile 1×PBS to prepare a stock solution of 5 mg/ml. The solution was subsequently filtered through 0.2 μm filter and stored at 2-8° C. 4−5×10^2 cells were seeded in 96-well plates. After 72 h incubation with or without different agents, MTT stock solution was added to each culture being assayed to equal one tenth the original culture volume, followed by incubation of cells at 37° C. for another 2 h. At the end of the incubation, the media was removed and cells were treated with 100-200 μl of DMSO to solubilize the dye. The assessment of the live cells was derived by measuring the absorbance of the converted dye at wavelength of 570 nm.
To test whether CFMs that interfere with CARP-1 binding with APC-2 modulate cell growth, HBC, colon, prostate, pancreatic cancer, MPM and lymphoma cells, as well as the immortalized, mammary epithelial MCF-10A cells were utilized. The cells were either treated with vehicle (DMSO) or various doses of the respective compound for a period of 72 h, and percent of live/viable cells for each compound was determined relative to the untreated controls as described in Methods.

[5] = test system: CARP-1, cyclin B1, Cdc20, Cdh1, APC-2, CDKIs, caspases, p38, Bcl2 family proteins; assay: Western blot of protein levels in treated cells; assay type: cell-based; conditions: for effect of pre-treatment on CFM-4-dependent loss of cyclin B1 and Cdc20 proteins (WB): pre-treatment before CFM-4
Procedure: as §2

[6] = test system: caspase-3, caspase-8, caspase-9, caspase-2; assay: ApoAlert Caspase profiling plate, fluorescence-based; assay type: cell-based; conditions: pre-treatment before CFM-4
Procedure: For apoptosis ELISA assay, 4−5×10^2 cells were seeded in 96-well plates and treated essentially as indicated in the MTT assay above. Untreated as well as treated cells were lysed, and levels of mono and oligo-nucleosomal DNA fragments in the lysates were determined by measuring optical density of each sample at 405 nm and 495 nm wavelengths. […] For TUNEL labeling, the cells were treated with various agents, fixed, labeled and photographed essentially as detailed in immuno-localization protocols described before (Zhang, L., Levi, E., Majumder, P., Yu, Y., Aboukameel, A., Du, J., Xu, H., Mohammad, R. M., Hatfield, J. S., Wali, A., Adsay, V., Majumdar, A. P. N., and Rishi, A. K. (2007) Mol. Cancer. Ther. 6(5), 1661-1672). […] Cell lysates derived from vehicle DMSO (Control) or CFM-4-treated cells were added to the wells that had immobilized fluorogenic caspase-3, caspase-8, caspase-9, or caspase-2 substrates. The fluorescence released from the activated caspase-dependent cleavage of respective substrate was detected by a plate reader at the excitation and emission wavelengths of 380 nm and 460 nm, respectively.

T1 sequence (Q9UJX6 685-754): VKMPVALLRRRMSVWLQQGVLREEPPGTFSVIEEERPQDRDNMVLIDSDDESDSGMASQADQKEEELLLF

## O=C1N(CCc2ccccc2)c2ccc(Br)cc2C12NN=C(c1ccccc1)S2 (stereo not shown) [CFM-5, 5-bromo-1-phenethyl-5′-phenyl-3′H-spiro[indoline-3,2′-[1,3,4]thiadiazol]-2-one]
[1]
  binding of immobilized Gst-APC-2 (685-754) with A-epitope peptide after pre-incubation with compound: failed to abolish its binding
[2]
  binding of immobilized A-epitope peptide with Gst-APC-2 (685-754) after pre-incubation with compound: abrogated its binding
[3]
  IC50: 1400 nM

## COC(=O)C[C@H](NC(=O)[C@H](C)NC(=O)[C@@H](NC(=O)OCc1ccccc1)C(C)C)C(=O)CF [zVAD-fMK, z-VAD-fmk, reference compound] (Cbz-Val-Ala-Asp(OMe)-CH2F)
[4]
  effect on cell growth suppression by CFM-4 (MTT): blocked the ability of CFM-4 to suppress cell growth
[5]
  effect of pre-treatment on CFM-4-dependent loss of cyclin B1 and Cdc20 proteins (WB): blocked CFM-4-dependent loss

## COC(=O)CC[C@H](NC(=O)[C@H](CC(C)C)NC(=O)OCc1ccccc1)C(=O)N[C@@H](Cc1cnc[nH]1)C(=O)N[C@@H](CC(=O)OC)C(=O)CF [z-LEHD-fmk] (Cbz-LE(OMe)HD(OMe)-CH2F)
[6]
  effect of pre-treatment on CFM-4-dependent activation of caspase 8 or caspase 9: abolished activation

## CC[C@H](C)[C@H](NC(=O)OCc1ccccc1)C(=O)N[C@@H](CCC(=O)OC)C(=O)N[C@H](C(=O)N[C@@H](CC(=O)OC)C(=O)CF)[C@@H](C)O [z-IETD-fmk] (Cbz-IE(OMe)TD(OMe)-CH2F)
[6]
  effect of pre-treatment on CFM-4-dependent activation of caspase 8 or caspase 9: abolished activation

## CC(C)C[C@H](NC(=O)[C@H](Cc1ccccc1)NC(=O)c1cnccn1)B(O)O [velcade, Bortezomib, reference compound]
[5]; 50 nM velcade 6 h or 24 h, 20 μM CFM-4 24 h
  CARP-1 levels (WB): modest increase in CARP-1 levels
[5]; 50 nM velcade combined with 20 μM CFM-4
  effect on CFM-4-dependent loss of cyclin B1 or Cdc20 proteins (WB): failed to interfere

## CC[C@H](C)[C@H](NC(=O)[C@H](CCC(=O)O)NC(=O)[C@@H](NC(C)=O)C(C)C)C(=O)N[C@H](C=O)CC(=O)O [Ac-VEOD-CHO, reference compound] (Ac-VEID-aldehyde)
[5]
  effect of pre-treatment on CFM-4-dependent loss of cyclin B1 and Cdc20 proteins (WB): blocked CFM-4-dependent loss
